Patent US20050272682A1, “SiRNA targeting PI3K signal transduction pathway and siRNA-based therapy” (priority 2004, published 2005)

Columns and labels:
[1] = system: DSS-induced colitis mice; experiment: DSS-induced colitis in mice, wortmannin by oral gavage; format: in vivo; conditions: DSS 5% 7 days, wortmannin 1.5 mg/kg oral gavage daily from day 2; day 7; DSS alone mean DAI 4; scale 0 to 4
Description: (§1) 60 male C57/bl6 mice aged 8 weeks and weighed around 20 g were administered with 5% (w/v) dextran sulfate sodium (DSS) in drinking water for 7 days. DSS used was 5000 MW sulfated polysaccharide (Sigma Chemical Co., St. Louis, Mo.). It is believed that DSS has direct cytotoxic effects on epithelial cells, immune cell function interference, and luminal microflora. DSS-induced inflammatory bowel disease (IBD) was characterized by epithelial damage, mucosal inflammatory infiltrates, and luminal ulceration similar to ulcerative colitis (see FIG. 1, panels A and B).
A validated clinical disease activity index (DAI) (Murano, et al., 2000; Murthy, et al., 1993) ranging from a score of 0 to 4 was calculated by an investigator blinded to the protocol using the following parameters: stool consistency, presence of fecal blood, and changes in body weight (Murano, et al., 2000). The stool consistency was assessed using the following four point scale: 0, normal; 1, soft; 2, very soft but formed; and 3, liquid. The intensity of the hemoccult paper test was scored by the following scale: 0, negative; 1, faintly blue; 2, moderately blue; 3, dark blue; and 4, blood visible. […]
Histology sections of large intestine were stained with H&E to evaluate degree of inflammatory changes in the mice before and after the wortmannin treatment. Neutrophil sequestration was assessed through MPO assay. […]

[2] = system: KM20 cells; experiment: DNA fragmentation assay (Cell Death Detection ELISA), KM20 cells; format: cell-based, human; conditions: TRAIL 100 ng/mL
Description: (§2) Cells were transfected with pik3r1, Akt1 or scrambled siRNA. After 48 h, adherent cells were detached by rapid trypsinization, counted in a Hausser chamber and seeded at a density of 2×10^3 cells per well in 96-well flat-bottom microtiter plates and incubated in 250 μl of growth medium for 24 h at 37° C. Media were removed and either new complete media or TRAIL (100 ng/mL) was added in a final volume of 200 μL and allowed to grow for 24 h at 37° C. After treatment, DNA fragmentation was evaluated by examination of cytoplasmic histone-associated DNA fragments (mono- and oligonucleosomes) using a Cell Death Detection ELISA^Plus kit (Roche Molecular Biochemicals) according to the manufacturer's instructions and as previously described (Wang. et al., 2002). The experiments were repeated on at least 3 separate occasions.

[3] = system: DSS-induced colitis mice; experiment: DSS-induced colitis in mice, intrarectal siRNA; format: in vivo
Description: as §1
A validated clinical disease activity index (DAI) (Murano, et al., 2000; Murthy, et al., 1993) ranging from a score of 0 to 4 was calculated by an investigator blinded to the protocol using the following parameters: stool consistency, presence of fecal blood, and changes in body weight (Murano, et al., 2000). The stool consistency was assessed using the following four point scale: 0, normal; 1, soft; 2, very soft but formed; and 3, liquid. The intensity of the hemoccult paper test was scored by the following scale: 0, negative; 1, faintly blue; 2, moderately blue; 3, dark blue; and 4, blood visible.
(§3) Inflammatory bowel disease (IBD) was induced in 2-month-old C57/bl6 mice using a 5% dextran sulfate sodium (DSS) solution in drinking water. siRNA directed to either p85α or Akt1 or siCONTROL was given on days 2, 3 and 4 of DSS exposure. Due to the short half-life of siRNA in vivo, siSTABLE was used which renders siRNA more resistant to degradation resulting in a half-life of 5 days. For each mouse, 5 μg of siRNA in 25 μl of transfection buffer was transferred into a sterile Eppendorf tube. In a separate sterile polystyrene tube 20 μg of DOTAP was mixed with 70 μl transfection buffer and then the siRNA mixture was transferred to the polystyrene tube containing the DOTAP and then incubated at room temperature for 30 min. Around 100 μl of the mixture was administered via the anus, by slow instillation into the lumen of the colon using a 20-gauge catheter and a 1-ml syringe. After treatment, mice were suspended head down for 30 sec. The colonic enema was performed on the second day of DSS exposure and repeated 24 and 48 h later. Cy-3 labeled siRNA were prepared for the treatment and administered as described above; mice were sacrificed at 4 and 24 hours after treatment and spleen, liver, pancreas and colon samples organs were taken and then frozen in liquid N2. Sections (6 μm) were cut with a cryostat microtome, thaw-mounted on a glass slide (cleaned with ethanol) and analyzed by fluorescent light microscopy (excitation λ=570 ηm).
Neutrophil sequestration was measured by MPO activity determination using the O-dianisidine method as previously described (Barone, et al., 1991). Whole tissue protein (100 μg) extract was used to measure the MPO activity. Activity was expressed as the amount of enzyme necessary to generate a change in absorbance of 1.0 per min per mg wet weight of tissue.
Tissue protein (100 μg) was placed in 96-well plates. Expression of IL-1β and IL-6, TNFα, and p65 NF-κB protein in whole tissue lysates was determined using anti-mouse cytokine ELISA kits from Pierce Biotechnology, Inc. (Rockford, Ill.) as previously described (Slogoff, et al., 2004). Cytokine expression of MIP-2 was determined with an anti-mouse MIP-2 ELISA purchased from Assay Designs, Inc. (Ann Arbor, Mich.). Each ELISA was performed according to the manufacturer's instructions.
Excised colons were evaluated for approximate length, for blood content, stool consistency, and general appearance of bowel wall. Histological examination was performed on three samples of the colon from each animal. The samples were fixed in 10% buffered formalin, dehydrated in ethanol, and then embedded in paraffin. Sections (4 μm) were then prepared and stained with hematoxylin and eosin.

[4] = system: severe acute pancreatitis mice; experiment: CMDE diet model of severe acute pancreatitis in mice; format: in vivo
Description: Choline and methionine deficient with ethionine (CMDE) was used to generate pancreatitis model in mice. Female Swiss-Webster mice were divided into two groups: control siRNA or p85α siRNA treatment group. Mice were injected with 10 μg control or p85α siRNA 3 days before and 1 day after starting experiment using hydrodynamic tail vein method. Mice were fed CMDE diet for 3 days. Ethionine (250 mg/kg, twice a day) was fed via gavage. After being fed with CMDE diet for 3 days, mice were fed with regular lab food. The mortality for 7 days was assessed in both groups.

[5] = system: PI3K/Akt pathway; experiment: Western blot of colon from mice given DSS and intrarectal siRNA; format: in vivo
Description: as §3
Western immunoblot analyses were performed as described previously (Wang, et al., 2002). Individual colon samples were homogenized using a Polytron power homogenizer in cell lysis buffer at 4° C. for 30 min. Lysates were clarified by centrifugation (8,000 g for 20 min at 4° C.), and sonicated for 30-45 sec on ice. Protein concentrations were determined using the method of Bradford (1976). Total protein (100 μg) was resolved on a 10% polyacrylamide gel and transferred to Immobilon-P […] membranes as described previously (Wang, et al., 2002). Filters were incubated overnight at 4° C. in blocking solution followed by a 1-h incubation with primary antibodies. Filters were washed three times in blocking solution and incubated with horseradish peroxidase-conjugated secondary antibody for 1 h. After three additional washes, the immune complexes were visualized by enhanced chemiluminescence (ECL) from Amersham (Arlington Heights, Ill.).

[6] = system: KM12C cells; experiment: DNA fragmentation assay (Cell Death Detection ELISA), KM12C cells; format: cell-based, human; conditions: TRAIL 100 ng/mL
Description: as §2

[7] = DSS, after day 3, values near control levels by day 7
[8] = colon, compared to DSS+control siRNA

Molecule: COC[C@H]1OC(=O)c2coc3c2[C@@]1(C)C1=C(C3=O)[C@@H]2CCC(=O)[C@@]2(C)C[C@H]1OC(C)=O [wortmannin, Wortmannin]
- mean DAI score [1]: 2

Molecule: Z-DEVD-fmk [reference compound]
- induction of apoptosis mediated by the combination of TRAIL and pik3r1 or Akt1 siRNA ([2]; KM20 cells pretreated with the caspase-3 inhibitor): completely blocked

Molecule: p85α siRNA: siSTABLE siRNA duplex to Mus musculus p85α mRNA; sense gcagcaaccgaaacaaagcuu (SEQ ID NO:2), antisense gcuuuguuucgguugcugcuu (SEQ ID NO:3) (sense GCAGCAACCGAAACAAAGCUU; antisense GCUUUGUUUCGGUUGCUGCUU; siSTABLE chemically modified siRNA, pattern not given here)
- gross changes in the colon associated with DSS treatment (shortening, intraluminal hemorrhage, necrosis) ([3]; 5 μg siRNA with DOTAP intrarectally on days 2, 3 and 4 of DSS): abrogated
- preventing the bowel shortening, mucosal wall thinning and blood in the colon (comparison of the two siRNA) ([3]; DSS, intrarectal siRNA): more effective than siRNA to Akt1
- disease activity index (DAI), course [3, 7]: stabilized and then improved
- weight loss, course [3, 7]: stabilized and then improved
- cytokine tissue levels (IL-1β, IL-6, MIP-2, TNFα) [3, 8]: significantly attenuated
- neutrophil sequestration (MPO activity) [3, 8]: significantly attenuated
- p65 NF-κB activity [3, 8]: significantly attenuated
- leukocyte infiltration and mucosal damage (colonic histology) ([3]; compared with DSS and control siRNA): decreased
- edema and bleeding in pancreas ([4]; 10 μg siRNA by hydrodynamic tail vein 3 days before and 1 day after start): no edema and bleeding
- mice died (mortality) ([4]; after 7 days): 30%
- Akt expression in colon [5]: not altered
- p110δ expression in colon [5]: not altered
- p85α expression in colon ([5]; normal and DSS-treated colon): decreased
- pAkt expression in colon ([5]; untreated and DSS-treated colon): decreased

B1: TNF-related apoptosis-inducing ligand (protein, UniProt P50591 1-281, looked up)
Tumor necrosis factor ligand …: MAMMEVQGGPSLGQTCVLIVIFTVLLQSLCVAVTYVYFTNELKQMQDKYSKSGIACFLKEDDSYWDPNDEESMNSPCWQVKWQLRQLVRKMILRTSEETISTVQEKQQNISPLVRERGPQRVAAHITGTRGRSNTLSSPNSKNEKALGRKINSWESSRSGHSFLSNLHLRNGELVIHEKGFYYIYSQTYFRFQEEIKENTKNDKQMVQYIYKYTSYPDPILLMKSARNSCWSKDAEYGLYSIYQGGIFELKENDRIFVSVTNEHLIDMDHEASFFGAFLVG
notes: apoptosis-inducing agent
- effect of TRAIL alone on cell growth [6]: no effect
- effect of TRAIL alone on cell growth ([2]; KM20 cells): no effect
